B1: RmELA: amidohydrolase native to Rhodothermus marinus (NCBI; WP_012844854.1, SEQ ID NO: 1), Nε-acyl-L-lysine-specific aminoacylase (protein, listed as Rhodothermus marinus)
chain: MLLLPMQARGQADYVLVNGRLYTVDPAQPVAEAMAVRGDRILMVGTTAQLTAAYPDAPHIDLQGRAVVPGFIDAHAHLMGLGLSRLRADLTGTRSVEEILERLREFARQLPEGAWLLGRGWDQNDWPVKEFPTRQMLDEIFPERPVWLVRIDGHAAWANTAAIRRANPALLTEQIPDPEGGHIVRDAEGRLTGVFIDEAMDLIARHIPPPSEAELEEALRRAVAEANRFGLTGVHDAGASLKTIQGYRRAVDDGTLTLRLYVMVDGLGEAFDYFCEHGPLLDYGGRLTVRSVKFYIDGALGSRGAALLADYSDDPGNRGLLRHEPEVFADMVQRAMKCGFQVNTHAIGDRGVRVVLDAYEKALRTLGRTVGRHRVEHAQVVAPEDFARFAELDLIASMQPTHATSDMYWAEDRLGPERVRGAYAWRTFLEHGVRLAFGSDFPVELANPLLGFYAAITRQDAEGWPEGGWYPEQRLTREEALRAFTLDAAYAAFQEHELGSLTPGKYADFVVLSHDIMTVPPEQILQTRVLATFFGGRCVYHDPEAAGLCPASP

Columns and labels:
RmELA = test: Acyl lysine hydrolysis (substrate specificity of purified RmELA); format: biochemical, Rhodothermus marinus; settings: for hydrolysis (degradation) activity of the enzyme for the acyl lysine, in words: 4 mM substrate, pH 7.0, 37° C.; for Hydrolysis activity: acyl lysine 4 mM, 100 mM Tris-HCl (pH 7.0), 37° C., 1 U = 1 μmol lysine per 1 minute
Protocol: To look into the substrate specificity of the acyl lysine hydrolysis of this enzyme, the reactivity of the enzyme as described herein for various kinds of acyl lysines was examined. […] Activity measurement was performed with the various kinds of acyl lysines (4 mM) and 100 mM Tris-HCl (pH 7.0) at 37° C., and the activity was calculated by measuring the concentration of lysine produced along with the degradation of the acyl lysines. For the measurement of L-lysine, BF-5 and a lysine electrode (manufactured by Oji Scientific Instruments Co., Ltd.) was used, whereas for the measurement of D-lysine, an amino acid analyzer (manufactured by Hitachi, Ltd.) was used. Here, 1 U was defined as an enzyme amount that releases 1 μmol lysine from each of the acyl lysines (per 1 minute).

[1] = format: biochemical; settings: incubated at 30° C. to 100° C. for 1 hour
Protocol: Using the purified enzyme acquired by the method described in Example 3, the optimum reaction temperature and temperature stability of the enzyme with Nε-acetyl-L-lysine as a substrate were examined.
Subsequently, remaining activity after being incubated at certain temperatures (30° C. to 100° C.) for 1 hour was measured. The activity was represented as relative activity (%) with the activity value before the incubation as 100.

Optimum pH of the enzyme = format: biochemical; settings: 37° C., acetate, Tris-HCl and borate buffers, pH 4.2 to 9.8
Protocol: Using the purified enzyme acquired by the method described in Example 3, the optimum pH and pH stability of the enzyme with Nε-acetyl-L-lysine as a substrate were examined.
Using various kinds of buffers (pH 4.2 to 6.0: acetate buffers, pH 7.2 to 8.8: Tris-HCl buffers, and pH 9.3 to 9.8: borate buffers) at 37° C., activity at various pH was measured. The activity was represented as relative activity (%) with the maximum activity value as 100. The optimum pH of this enzyme was pH 5.0.

[2] = Enzyme activity after heat sterilization of the culture solution; format: biochemical; settings: 75° C. for 30 minutes
Protocol: Whether a C. glutamicum expression strain of RmELA could be sterilized with heat while maintaining the enzyme activity was examined. The culture solution acquired by the method described in Example 1, 1-6) in an amount of 150 μl was dispensed to a PCR tube and was subjected to heat treatment at 75° C. for 30 minutes using a block heater to obtain a heat treatment culture solution. The heat treatment culture solution and the heat treatment culture solution serially diluted (with a dilution rate of ×10^2) with a physiological saline solution (0.85% of NaCl) were applied to a CM2G agar medium (10 g of a yeast extract, 10 g of polypeptone, 5 g of glucose, 5 g of sodium chloride, 0.2 g of DL-methionine, 15 g of agar, pH 7.2, and filled up to 1 L with water) containing 25 mg/l of kanamycin, and the number of formed colonies was counted to examine the number of living bacteria of the RmELA expression strain. As a result, no colony formation was detected. […] When a culture solution without the heat treatment was examined by the same method, the number of living bacteria was 7.0×10^10 cfu/ml.
Subsequently, the culture solution and the heat treatment culture solution explained above were centrifuged individually, the supernatants were collected, and the hydrolysis activity of Nε-acetyl-L-lysine within the supernatants was measured.

[3] = Storage stability of enzymatic solutions; format: biochemical; settings: stored at 4° C., 15° C. and 25° C.
Protocol: A culture solution of the C. glutamicum expression strain of RmELA acquired by the method described in Example 1, 1-6) was centrifuged to collect the supernatant, which was membrane-sterilized with a 0.45 μm filter to obtain an RmELA enzymatic solution. A WDK010/pPKT-tatABC strain (WO 2010/067871) as a C. glutamicum expression strain of ELA native to Streptomyces mobarensis (SmELA) was cultured and sterilized by a similar procedure to obtain an SmELA enzymatic solution.
These enzymatic solutions were stored at temperatures of 4° C., 15° C., and 25° C., and the transition of enzyme activity was examined. The activity was represented as relative activity (%) with the activity value when the storage started as 100.

[4] = Synthesis reaction of Nε-dodecanoyl-L-lysine, L-lysine consumption; format: biochemical; settings: 300 mmol/L substrates, 3 U/ml, after 24 hours
Protocol: Using the RmELA enzymatic solution prepared by the method described in Example 7, the synthesis reaction of Nε-dodecanoyl-L-lysine was carried out. A 200 ml of a reaction solution was prepared so as to give final concentrations of 300 mmol/L dodecanoic acid, 300 mmol/L L-lysine hydrochloride, 0.1 mmol/L ZnSO4, 10% methanol, and 3 U/ml the RmELA enzymatic solution and was stirred at 300 rpm using a 500 ml jar fermenter. The pH was adjusted to be 7.0 using 1 N of NaOH, and the reaction temperature was adjusted to be 55° C.
Nα-dodecanoyl-L-lysine was produced by only 0.06% in terms of yield relative to L-lysine.
For the measurement of lysine, BF-5 and a lysine electrode (manufactured by Oji Scientific Instruments Co., Ltd.) were used. The HPLC analysis was performed with Column YMC-UltraHT Pro C18, 50×2.0 mm I.D. (manufactured by YMC Co., Ltd.), a mobile layer of NaH2PO4 (pH 3.0)/MeOH=3/7, and UV 210 nm.
When the reaction pH was changed from pH 7.0 to pH 6.0, and the synthesis reaction of Nε-dodecanoyl-L-lysine was carried out by a method similar to the above, 96% of the charged L-lysine was consumed after 24 hours (FIG. 7). […] At pH 7.0, dodecanoic acid in the reaction solution was emulsified to give a high viscosity solution. […]

[5] = Synthesis reaction of Nε-octanoyl-L-lysine by RmELA enzymatic solution, L-lysine consumption; format: biochemical
Protocol: Using the RmELA enzymatic solution prepared by the method described in Example 7, the synthesis reaction of Nε-octanoyl-L-lysine was carried out. A 100 ml of a reaction solution was prepared so as to give final concentrations of 300 mmol/L octanoic acid, 300 mmol/L L-lysine hydrochloride, 0.1 mmol/L ZnSO4, and 2.1 U/ml the RmELA enzymatic solution and was stirred at 300 rpm using a 200 ml jar fermenter. The pH was adjusted to be 7.0 using 1 N of NaOH, and the reaction temperature was adjusted to be 50° C.
During the reaction, the reaction solution was sampled over time, and an L-lysine concentration within the reaction solution was measured. […] When the reaction solution after 23 hours was analyzed by HPLC, Nε-octanoyl-L-lysine was produced by 80% in terms of yield relative to L-lysine. […] No peak of Nα-octanoyl-L-lysine was detected.
The substrate (octanoic acid and L-lysine hydrochloride) final concentration in the reaction condition was changed to (1) 500 mmol/L, (2) 750 mmol/L, and (3) 1,000 mmol/L to carry out the synthesis reaction of Nε-octanoyl-L-lysine.
During the reaction, the reaction solution was sampled over time, and an L-lysine concentration in the reaction solution was measured. […] Respective consumption rates relative to the charged L-lysine and reaction times were (1) 87% after 35 hours, (2) 92% after 35 hours, and (3) 94% after 57 hours.

hydrolysis (degradation) activity of the enzyme for the acyl lysine, in words (RmELA)	Molecule	Hydrolysis activity (RmELA) [U/mg]	also measured
did not exhibit hydrolysis activity	CC(=O)N[C@@H](CCCCN)C(=O)O [Nα-Acetyl-L-Lys, Nα-acetyl-L-lysine]	0.0	
did not exhibit hydrolysis activity	NCCCC[C@H](NC(=O)c1ccccc1)C(=O)O [Nα-Benzoyl-L-Lys, Nα-benzoyl-L-lysine]	0.0	
	N[C@@H](CCCCNC(=O)[C@@H](N)CCC(=O)O)C(=O)O [Nε-(αGlu)-L-Lys]	36.8	
	N[C@@H](CCCCNC(=O)CC[C@H](N)C(=O)O)C(=O)O [Nε-(γGlu)-L-Lys]	41.3	
exhibited degradation activity	N[C@@H](CCCCNC(=O)c1ccccc1)C(=O)O [Nε-Benzoyl-L-Lys, Nε-benzoyl-L-lysine]	90.1	
	B1		temperature up to which no decrease in activity was shown [1]: up to 80 °C; optimum pH (Optimum pH of the enzyme): 5.0; optimum pH (Optimum pH of the enzyme; listed as protein having the amino acid sequence of SEQ ID NO: 1): about 5; enzyme activity after heat treatment [2]: no decrease in enzyme activity; transition of enzyme activity during storage [3]: did not decrease in enzyme activity; charged L-lysine consumed ([4]; pH 6.0, 55° C.): 96%; charged L-lysine consumed ([4]; pH 7.0, 55° C.): 98%; charged L-lysine consumed ([5]; 300 mmol/L substrates, 2.1 U/ml, pH 7.0, 50° C., after 23 hours): 80%; consumption rate relative to the charged L-lysine ([5]; substrate 500 mmol/L, after 35 hours): 87%; consumption rate relative to the charged L-lysine ([5]; substrate 750 mmol/L, after 35 hours): 92%; consumption rate relative to the charged L-lysine ([5]; substrate 1,000 mmol/L, after 57 hours): 94%

Molecule	hydrolysis (degradation) activity of the enzyme for the acyl lysine, in words (RmELA)	Hydrolysis activity (RmELA) [U/mg]	also measured
CC(=O)NCCCC[C@@H](N)C(=O)O [Nε-Acetyl-D-Lys, Nε-acetyl-D-lysine]	did not exhibit hydrolysis activity	0.0	
CC(=O)NCCCC[C@H](N)C(=O)O [Nε-Acetyl-L-Lys, Nε-acetyl-L-lysine]	exhibited degradation activity	17.5	

From patent US10266857B2, “Method for producing Nε-acyl-L-lysine” (AJINOMOTO CO., INC., priority 2015, dated 2019)
